21 molecules from US6821967B2, “Substituted piperazine derivatives, the preparation thereof and their use as medicaments” (Boehringer Ingelheim Pharma KG, priority 1999, dated 2004) can be followed below.

Consider `COC(=O)CNC(=O)C1(CCCCN2CCN(c3ccc4ccccc4n3)CC2)c2ccccc2-c2ccccc21` [Example 95, 9-[4-(4-quinolin-2-yl-piperazin-1-yl)-butyl]-9H-fluorene-9-carboxylic acid-(methoxycarbonyl-methyl)-amide], for which the melting point (commonly the temperature of the solid-liquid transition) lay within 53 to 55 °C.
The result for `C[C@H]1CN(c2ccc3ccccc3n2)CCN1CCCCC1(C(=O)NCC(F)(F)F)c2ccccc2-c2ccccc21` [Example 38, 9-{4-[(S)-2-methyl-4-quinolin-2-yl-piperazin-1-yl]-butyl}-9H-fluorene-9-carboxylic acid-(2,2,2-trifluoro-ethyl)-amide] reads 102 °C.
The result for `CCn1c(N2CCN(CCCCC3(C(=O)NCc4ccc(F)cc4)c4ccccc4-c4ccccc43)CC2)nc2ccccc21` [Example 61, 9-{4-[4-(1-ethyl-1H-benzimidazol-2-yl)-piperazin-1-yl]-butyl}-9H-fluorene-9-carboxylic acid-4-fluoro-benzylamide] reads 166 °C; that for `O=C(NCc1ccc(F)cc1)C1(CCCCN2CCN(c3ccc4cccc(Cl)c4n3)CC2)c2ccccc2-c2ccccc21` [Example 55, 9-{4-[4-(8-chloro-quinolin-2-yl)-piperazin-1-yl]-butyl}-9H-fluorene-9-carboxylic acid-4-fluoro-benzylamide], 66 °C; that for `COc1ccc(CNC(=O)C2(CCCCN3CCN(c4nc5ccccc5s4)CC3)c3ccccc3-c3ccccc32)cc1` [Example 76, 9-[4-(4-benzothiazol-2-yl-piperazin-1-yl)-butyl]-9H-fluorene-9-carboxylic acid-4-methoxy-benzylamide], 145 °C.
For the molecule `O=C(O)CCNC(=O)C1(CCCCN2CCN(c3ccc4ccccc4n3)CC2)c2ccccc2-c2ccccc21` [Example 96, 9-[4-(4-quinolin-2-yl-piperazin-1-yl)-butyl]-9H-fluorene-9-carboxylic acid-(2-carboxy-ethyl)-amide], the melting point was 98 to 100 °C.
With `O=C(NCC(F)(F)F)C1(CCCCN2CCN(c3cnc4ccccc4n3)CC2)c2ccccc2-c2ccccc21` [Example 22, 9-[4-(4-quinoxalin-2-yl-piperazin-1-yl)-butyl]-9H-fluorene-9-carboxylic acid-(2,2,2-trifluoro-ethyl)-amide], the melting point is 142 to 145 °C.
In turn, `C[C@@H]1CN(c2ccc3ccccc3n2)C[C@H](C)N1CCCCC1(C(=O)NCc2ccc(F)cc2)c2ccccc2-c2ccccc21` [Example 65, 9-[4-(cis-2,6-dimethyl-4-quinolin-2-yl-piperazin-1-yl)butyl]-9H-fluorene-9-carboxylic acid-4-fluoro-benzylamide] returned a melting point of 62 °C.
As for `CCn1c(N2CCN(CCCCC3(C(=O)NCC(F)(F)F)c4ccccc4-c4ccccc43)CC2)nc2ccccc21` [Example 11, 9-{4-[4-(1-ethyl-1H-benzimidazol-2-yl)-piperazin-1-yl]-butyl}-9H-fluorene-9-carboxylic acid-(2,2,2-trifluoro-ethyl)-amide], the figure is 55 °C; as for `Cn1c(N2CCN(CCCCC3(C(=O)NCC(F)(F)F)c4ccccc4Oc4ccccc43)CC2)nc2ccccc21` [Example 102, 9-{4-[4-(1-methyl-1H-benzimidazol-2-yl)-piperazin-1-yl]-butyl}-9H-xanthene-9-carboxylic acid-(2,2,2-trifluoro-ethyl)-amide], 110 °C.
The result for `O=C(N1CCOCC1)C1(CCCCN2CCN(c3ccc4ccccc4n3)CC2)c2ccccc2Oc2ccccc21` [Example 120, 1-morpholin-4-yl-1-{9-[4-(4-quinolin-2-yl-piperazin-1-yl)-butyl]-9H-xanthene-9-yl}-methanone] reads 48 to 58 °C; that for `COc1cccc(CNC(=O)C2(CCCCN3CCN(c4ccc5ccccc5n4)CC3)c3ccccc3-c3ccccc32)c1` [Example 81, 9-[4-(4-quinolin-2-yl-piperazin-1-yl)-butyl]-9H-fluorene-9-carboxylic acid-3-methoxy-benzylamide], 114 to 116 °C.
The result for `Cn1c(N2CCN(CCCCC3(C(=O)NCC(F)(F)C(F)(F)F)c4ccccc4-c4ccccc43)CC2)nc2ccccc21` [Example 87, 9-{4-[4-(1-methyl-1H-benzimidazol-2-yl)-piperazin-1-yl]-butyl}-9H-fluorene-9-carboxylic acid-(2,2,3,3,3-pentafluoro-propyl)-amide] reads 120 °C; that for `O=C(NCC(F)(F)F)C1(CCCCN2CCN(c3ccc4cc(Cl)ccc4n3)CC2)c2ccccc2-c2ccccc21` [Example 28, 9-{4-[4-(6-chloro-quinolin-2-yl)-piperazin-1-yl]-butyl}-9H-fluorene-9-carboxylic acid-(2,2,2-trifluoro-ethyl)-amide], 151 °C; that for `O=C(NCC(F)(F)F)C1(CCCCN2CCN(c3ccc4cccc(O)c4n3)CC2)c2ccccc2-c2ccccc21` [Example 31, 9-{4-[4-(8-hydroxy-quinolin-2-yl)-piperazin-1-yl]-butyl}-9H-fluorene-9-carboxylic acid-(2,2,2-trifluoro-ethyl)-amide], 159 °C.
For the molecule `O=C(NCC(F)(F)F)C1(CCCCN2CCN(c3ccc4ccc(Cl)cc4n3)CC2)c2ccccc2-c2ccccc21` [Example 26, 9-{4-[4-(7-chloro-quinolin-2-yl)-piperazin-1-yl]-butyl}-9H-fluorene-9-carboxylic acid-(2,2,2-trifluoro-ethyl)-amide], the melting point lay in the range of 146 to 148 °C.
The molecule `Cn1c(N2CCN(CCCCC3(C(=O)NCC(F)(F)F)c4ccccc4-c4ccccc43)CC2)nc2cc(F)ccc21` [Example 18, 9-{4-[4-(5-fluoro-1-methyl-1H-benzimidazol-2-yl)-piperazin-1-yl]-butyl}-9H-fluorene-9-carboxylic acid-(2,2,2-trifluoro-ethyl)-amide] had a melting point of 59 °C.
In the case of `O=C(NCc1ccc(F)cc1)C1(CCCCN2CCN(c3nc4ccccc4s3)CC2)c2ccccc2-c2ccccc21` [Example 59, 9-[4-(4-benzothiazol-2-yl-piperazin-1-yl)-butyl]-9H-fluorene-9-carboxylic acid-4-fluoro-benzylamide], the melting point was 160 °C.
In turn, `O=C(NCc1ccc(F)c(F)c1)C1(CCCCN2CCN(c3ccc4ccccc4n3)CC2)c2ccccc2-c2ccccc21` [Example 85, 9-[4-(4-quinolin-2-yl-piperazin-1-yl)-butyl]-9H-fluorene-9-carboxylic acid-3,4-difluoro-benzylamide] came in with a melting point of 141 to 143 °C.
As for `C[C@@H]1CN(c2nc3ccccc3s2)C[C@H](C)N1CCCCC1(C(=O)NCc2ccc(F)cc2)c2ccccc2-c2ccccc21` [Example 70, 9-[4-(4-benzothiazol-2-yl-cis-2,6-dimethyl-piperazin-1-yl)-butyl]-9H-fluorene-9-carboxylic acid-4-fluoro-benzylamide], the figure is 171 °C; as for `O=C(O)CNC(=O)C1(CCCCN2CCN(c3ccc4ccccc4n3)CC2)c2ccccc2-c2ccccc21` [Example 97, 9-[4-(4-quinolin-2-yl-piperazin-1-yl)-butyl]-9H-fluorene-9-carboxylic acid-(carboxy-methyl)-amide], 127 to 129 °C.
